In data set [1] the test system is HL 60 cells. The experiment in a line: Cytotoxicity, colorimetric test (ALLEY et al.), HL 60. It counts as cell-based, human. The conditions noted are these: for IC50: Homo sapiens, HL-60, concentration inhibiting 50% of cell growth, 9 concentrations. As for the experimental part:
(§1) The cytotoxicity of the compounds is assessed using the calorimetric test described by ALLEY et al. (Cancer Res., (1988) 48, 589-601). This automated test is routinely used on 2 cell lines: L 1210 (mouse leukemia) and HL 60 (human promyelocyte). On each of these lines, the cytotoxicity is assessed using 9 concentrations of the compounds. The IC50 is the concentration inhibiting 50% of cell growth.

Data set [2] has as its system L 1210 cells. The experiment in a line: Cytotoxicity, colorimetric test (ALLEY et al.), L 1210. It counts as cell-based, mouse. The conditions noted are these: for IC50: Mus musculus, L1210, concentration inhibiting 50% of cell growth, 9 concentrations. As for the experimental part: as §1
Data set [3] deals with T1, N-myristoyltransferase (NMT) (Mus musculus, UniProt O70310).
T1 construct: The supernatant comprises the whole of the NMT activity present in the L 1210 microsomes; endogenous in cells; host or cells: L 1210 murine leukemia cells; Triton 770-solubilized microsomes (105,000 g supernatant)
T1 sequence (O70310 1-496): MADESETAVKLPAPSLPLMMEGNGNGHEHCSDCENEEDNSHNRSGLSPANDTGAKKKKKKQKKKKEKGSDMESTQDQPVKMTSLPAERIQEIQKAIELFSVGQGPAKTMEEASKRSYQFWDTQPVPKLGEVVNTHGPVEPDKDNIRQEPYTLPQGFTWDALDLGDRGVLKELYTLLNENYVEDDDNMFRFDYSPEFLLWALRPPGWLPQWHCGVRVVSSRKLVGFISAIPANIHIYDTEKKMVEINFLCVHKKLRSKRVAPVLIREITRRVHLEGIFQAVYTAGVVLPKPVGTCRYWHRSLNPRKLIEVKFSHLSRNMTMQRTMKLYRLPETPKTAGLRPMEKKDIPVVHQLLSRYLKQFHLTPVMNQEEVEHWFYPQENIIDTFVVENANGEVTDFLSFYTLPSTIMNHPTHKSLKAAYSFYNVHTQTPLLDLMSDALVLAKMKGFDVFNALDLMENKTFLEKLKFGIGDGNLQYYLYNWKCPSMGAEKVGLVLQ
Kind of data set: Inhibition of N-myristoyltransferase (NMT) solubilized from L 1210 microsomes, in competition with peptide substrate G8R. The conditions noted are these: for IC50: NMT from L 1210 microsomes, peptide substrate G8R, 10 min at 37° C. In kind it is biochemical, murine (L 1210). As for the experimental part:
Leukemic cells of murine origin (L 1210) are cultured in 500- to 1000-ml roller bottles in a medium comprising: RPMI 1640 medium (Gibco); 10% fetal calf serum; 50 units/ml of penicillin; 50 μM streptomycin; 2 mM glutamine; and 10 mM HEPES (Gibco). The cells grow with continuous agitation at 37° C. in an atmosphere of 5% CO2 /95% air. The cells are collected and washed. The final pellet, typically containing 2.5×10^11 cells is resuspended in a lysis buffer [50 mM Tris, pH 7.9; 1 mM DTT; 1 mM EDTA; and 250 mM sucrose]. The cells are lysed and homogenized. The microsomes (vesiculated endoplasmic reticulum) are collected by centrifugation at 105,000 g as a pellet.
NMT is a membrane enzyme. To solubilize this enzyme, this suspension is then diluted to 2/3 in a solubilization buffer [50 mM HEPES, pH 7.5, 1 mM EDTA, 1 mM DTT, 10% glycerol and 3% Triton 770] and maintained for 30 min at 4° C. with stirring. This suspension is then centrifuged again at 105,000 g for 75 min. The material insoluble in the detergent sediments as a pellet. The supernatant comprises the whole of the NMT activity present in the L 1210 microsomes.
The compounds are then tested on the supernatant in competition with the peptide substrate Gly-Asn-(Ala)4 -(Arg)2 ("G8R") according to the conditions which follow, as described by TOWLER et al. (PNAS, (1987), 84, 2708-2711). Myristoylcoenzyme A is synthesized enzymatically immediately before use by incubation of myristate with ATP, Coenzyme A (lithium salt) and Pseudomonas Acyl-Coa synthetase (20 min at 30° C.). The peptide substrate and the biological source as obtained above are then added. The mixture is incubated for 10 min at 37° C.; the reaction is then stopped with 110 μl of methanol and 10 μl of trichloroacetic acid. The medium is left at 4° C. for 10 min and then centrifuged at 10,000 g for 5 min. An aliquot (30 μl) of the final supernatant is injected into an HPLC system equipped with a μBondapak column (Waters) and developed with a linear gradient as described by Towler et al. (PNAS, (1987), 84, 2708-11). Detection of the acylated peptide is performed using a radioactive line detector (Berthold) by means of the addition of 5 ml/min of scintillation fluid (Zinsser). The acylated peptide is eluted at 85% acetonitrile-TFA/15% H20-TFA.
The compounds tested as inhibitors are suspended in a 0.1% solution of Triton 770 after a brief sonication in the cold state. 10 μl of the solution of inhibitor are added to the reaction medium. The experimental conditions are identical to those described above. The activity of the compound is evaluated on the basis of the decrease in control activity, incubated under the same conditions but in the presence of the solution of suspension.

The mark [4] stands for this setting: compared with N-myristoylglycine.

Two compounds from US5164414A, “Use of N-myristoyl-(S)-phenylalanine for the treatment of diseases involving myristoylation” (Adir Et Compagnie, priority 1990, dated 1992) can be followed below.

A word on the IC50: it is the concentration that gives 50% inhibition. High values mean lower potency, low ones higher potency.

Entries after “also recorded” stand apart in the source; their conditions may differ.

As to `CCCCCCCCCCCCCC(=O)N[C@@H](Cc1ccccc1)C(=O)O` [N-myristoyl-(S)-phenylalanine], the IC50 in data set [1] came out at 12.8 µM; in data set [2], 29.5 µM; in data set [3], 200 µM. Besides, the “cytotoxicity on HL 60 cells (in words)” value in data set [1] (setting [4]) is “markedly greater than that due to N-myristoylglycine; also recorded: markedly greater cytotoxicity than N-myristoylglycine”. Besides, the “cytotoxicity on L 1210 cells (in words)” value in data set [2] (setting [4]) is “markedly greater than that due to N-myristoylglycine; also recorded: markedly greater cytotoxicity than N-myristoylglycine”. Moreover, the “inhibition of NMT activity (in words)” value in data set [3] (enzyme extracted from L 1210 cells) is “strongly inhibits its activity; also recorded: markedly greater inhibition of the activity of this enzyme than the use of compounds described in the prior art”. Besides, in data set [3] (ratio of IC50 versus N-myristoylglycine), the “activity greater than that measured for N-myristoylglycine” value is 15 -fold.

Consider `CCCCCCCCCCCCCC(=O)NCC(=O)O` [N-myristoylglycine, reference compound], for which the IC50 in data set [1] is 20.5 µM; in data set [2], 48.4 µM; in data set [3], 3000 µM.
